Patent US20220162192A1 (ESCAPE Bio, Inc., priority 2019, published 2022)
Where two headings read alike, the source gives them in different places.

Legend:
[1] = target: T1, Recombinant wild type LRRK2 protein (Homo sapiens, UniProt Q5S007); assay: LanthaScreen Kinase Activity Assay (TR-FRET), wild type LRRK2; type: biochemical; conditions: 25 μM ATP, 400 nM LRRKtide, 2.9 nM kinase, 60 min at room temperature, read-out: LRRK2 WT IC50
T1 construct: purchased Life Technologies PR8604B
Experimental: (§1) LRRK2 kinase activity was measured using a LanthaScreen™ Kinase Activity Assay from ThermoFisher Scientific. Recombinant wild type or G2019S-LRRK2 protein (Life Technologies, PR8604B or PV4881, respectively), was incubated with a fluorescein-labeled peptide substrate called LRRKtide that is based upon ezrin/radixin/moesin (ERM) (Life Technologies, PV4901) in the presence of ATP and serially diluted compound. After an incubation period of 1 hr, the phosphotransferase activity was stopped and a terbium-labelled anti-pERM antibody (Life Technologies, PV4899) was added to detect the phosphorylation of LRRKtide by measuring the time resolved-Forster resonant energy transfer (TR-FRET) signal from the terbium label on the antibody to the fluorescein tag on LRRKtide, expressed as the 520 nm/495 nm emission ratio. Compound-dependent inhibition of the TR-FRET signal was used to generate a concentration-response curve for IC50 determination.
(§2) The assay was carried out under the following protocol conditions: 1 mM compound in DMSO was serially diluted 1:3, 11 points in DMSO with a Biomek FX and 0.1 μL of the diluted compound was subsequently stamped into the assay plate (384-well format Lumitrac 200, Greiner, 781075) with an Echo Labcyte such that the final compound concentration in the assay was 10 μM to […]. Subsequently, 5 μL of 2× kinase solution (2.9 nM final concentration) was added to the assay plate in assay buffer composed of 50 mM Tris pH 8.5 (Sigma, T6791), 5 mM MgCl2 (Fluka, 63020), 1 mM EGTA (Sigma, E3889), 0.01% BRIJ-35 (Sigma, P1254) and 2 mM DTT. The reaction was started by addition of 2×ATP/LRRKtide solution in assay buffer such that the final concentration was 400 nM LRRKtide and 25 μM ATP. After 60 min incubation at room temperature, the reaction was stopped by addition of […] containing a final concentration of 2 nM anti-pERM antibody and 10 mM EDTA. After a 30 min incubation at RT, the TR-FRET signal was measured on a Wallac 2104 EnVision® multilabel reader at an excitation wavelength of 340 nm and reading emission at 520 nm and 495 nm. The ratio of the 520 nm and 495 nm emission was used to analyze the data.

[2] = target: T2, Recombinant G2019S-LRRK2 protein (Homo sapiens, UniProt Q5S007, G2019S); assay: LanthaScreen Kinase Activity Assay (TR-FRET), G2019S-LRRK2; type: biochemical; conditions: class symbols; 25 μM ATP, 400 nM LRRKtide, 2.9 nM kinase, 60 min at room temperature
T2 construct: purchased Life Technologies PV4881
T2 sequence (Q5S007 whole entry G2019S): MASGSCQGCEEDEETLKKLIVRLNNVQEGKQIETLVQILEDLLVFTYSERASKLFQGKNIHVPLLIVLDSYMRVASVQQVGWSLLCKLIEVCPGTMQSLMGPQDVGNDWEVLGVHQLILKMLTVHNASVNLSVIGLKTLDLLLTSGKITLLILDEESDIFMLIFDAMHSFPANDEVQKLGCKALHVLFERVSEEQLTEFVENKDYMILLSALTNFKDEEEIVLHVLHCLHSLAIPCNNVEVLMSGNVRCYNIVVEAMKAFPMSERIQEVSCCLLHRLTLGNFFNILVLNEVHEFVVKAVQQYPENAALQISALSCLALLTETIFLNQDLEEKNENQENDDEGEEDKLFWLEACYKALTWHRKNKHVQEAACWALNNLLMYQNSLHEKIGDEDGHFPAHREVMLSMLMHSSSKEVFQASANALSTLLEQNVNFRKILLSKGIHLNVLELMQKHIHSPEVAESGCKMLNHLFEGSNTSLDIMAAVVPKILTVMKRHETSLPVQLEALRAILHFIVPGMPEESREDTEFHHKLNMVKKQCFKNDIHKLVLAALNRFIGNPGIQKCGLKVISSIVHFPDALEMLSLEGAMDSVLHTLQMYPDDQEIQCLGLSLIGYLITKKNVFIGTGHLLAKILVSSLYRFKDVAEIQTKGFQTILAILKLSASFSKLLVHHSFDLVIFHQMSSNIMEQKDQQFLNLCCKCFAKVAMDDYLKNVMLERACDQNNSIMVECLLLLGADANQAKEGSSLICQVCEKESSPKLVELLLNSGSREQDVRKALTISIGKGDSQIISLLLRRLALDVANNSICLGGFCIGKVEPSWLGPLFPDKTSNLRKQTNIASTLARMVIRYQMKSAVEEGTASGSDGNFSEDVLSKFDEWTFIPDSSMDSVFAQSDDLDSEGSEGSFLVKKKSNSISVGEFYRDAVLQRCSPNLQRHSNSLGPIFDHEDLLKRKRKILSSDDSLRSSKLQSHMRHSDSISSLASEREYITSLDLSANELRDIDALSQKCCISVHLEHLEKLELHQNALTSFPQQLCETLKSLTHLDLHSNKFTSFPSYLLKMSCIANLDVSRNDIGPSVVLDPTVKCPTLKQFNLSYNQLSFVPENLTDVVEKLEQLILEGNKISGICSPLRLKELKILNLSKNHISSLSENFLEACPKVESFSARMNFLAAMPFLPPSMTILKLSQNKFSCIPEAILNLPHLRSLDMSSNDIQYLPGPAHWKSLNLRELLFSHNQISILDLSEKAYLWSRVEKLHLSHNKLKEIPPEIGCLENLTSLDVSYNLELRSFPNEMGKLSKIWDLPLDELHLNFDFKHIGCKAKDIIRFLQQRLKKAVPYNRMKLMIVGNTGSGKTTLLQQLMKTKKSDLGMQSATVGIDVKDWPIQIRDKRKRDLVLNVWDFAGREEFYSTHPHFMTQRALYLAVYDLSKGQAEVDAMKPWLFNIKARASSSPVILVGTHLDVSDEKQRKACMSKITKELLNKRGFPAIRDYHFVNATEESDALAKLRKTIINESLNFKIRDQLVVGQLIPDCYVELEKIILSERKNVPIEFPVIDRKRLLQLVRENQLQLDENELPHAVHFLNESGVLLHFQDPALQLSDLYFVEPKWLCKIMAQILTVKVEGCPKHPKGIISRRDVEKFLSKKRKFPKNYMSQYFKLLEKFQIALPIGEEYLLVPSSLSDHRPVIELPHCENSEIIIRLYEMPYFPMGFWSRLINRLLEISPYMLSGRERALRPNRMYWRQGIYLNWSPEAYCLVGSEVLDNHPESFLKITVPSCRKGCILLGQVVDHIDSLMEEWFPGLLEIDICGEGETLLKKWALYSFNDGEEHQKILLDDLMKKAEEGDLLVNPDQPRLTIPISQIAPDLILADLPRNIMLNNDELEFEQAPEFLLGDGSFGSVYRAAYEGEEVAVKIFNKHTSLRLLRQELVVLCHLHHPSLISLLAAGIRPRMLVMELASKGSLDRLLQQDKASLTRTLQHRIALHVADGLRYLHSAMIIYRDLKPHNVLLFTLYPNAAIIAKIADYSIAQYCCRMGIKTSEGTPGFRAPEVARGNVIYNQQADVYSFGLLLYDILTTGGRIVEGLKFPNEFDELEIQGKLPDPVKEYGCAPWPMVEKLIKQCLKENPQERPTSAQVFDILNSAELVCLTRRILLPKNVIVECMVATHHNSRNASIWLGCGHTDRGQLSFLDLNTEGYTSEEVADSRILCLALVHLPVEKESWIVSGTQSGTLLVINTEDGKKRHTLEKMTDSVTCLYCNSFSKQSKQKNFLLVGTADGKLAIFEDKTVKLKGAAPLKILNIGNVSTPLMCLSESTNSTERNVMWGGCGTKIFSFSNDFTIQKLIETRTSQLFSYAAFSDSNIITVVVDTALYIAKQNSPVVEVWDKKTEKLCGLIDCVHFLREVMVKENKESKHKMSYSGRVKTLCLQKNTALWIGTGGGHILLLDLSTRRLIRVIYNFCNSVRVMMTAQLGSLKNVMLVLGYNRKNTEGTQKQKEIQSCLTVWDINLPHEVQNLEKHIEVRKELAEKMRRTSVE
Experimental: as §1, §2

T1 sequence (Q5S007 whole entry): as the sequence (Q5S007 whole entry G2019S) above, with S2019G counted along it

Row | IC50 ([1]; class symbols) [µM] | IC50 [2] [µM] | IC50 ([1]; numeric bound instead of class symbol) [µM] | SMILES
1 | ≤ 0.1 | ≤ 0.1 | – | Cn1ncc2c1CCC(C(=O)Nc1ccc3[nH]nc(-c4ccoc4)c3c1)C2 (single isomer, unassigned) [Example 161a]
2 | 1 to 10 | ≤ 0.1 | – | COc1n[nH]c2ccc(NC(=O)c3c(F)cc4c(cnn4C)c3F)cc12 [Example 106, 4,6-Difluoro-N-(3-methoxy-1H-indazol-5-yl)-1-methyl-1H-indazole-5-carboxamide]
3 | 0.1 to 1 | ≤ 0.1 | – | Cc1c(C(=O)Nc2ccc3[nH]nc(-c4cnco4)c3c2)ncc2c1cnn2C [Example 169, 1,4-Dimethyl-N-(3-(oxazol-5-yl)-1H-indazol-5-yl)-1H-pyrazolo[3,4-c]pyridine-5-carboxamide]
4 | 0.1 to 1 | ≤ 0.1 | – | O=C(Nc1ccc2[nH]nc(-c3ccoc3)c2c1)c1nc2cnccc2s1 [Example 170, N-(3-(Furan-3-yl)-1H-indazol-5-yl)thiazolo[4,5-c]pyridine-2-carboxamide]
5 | 0.1 to 1 | ≤ 0.1 | – | Cn1ncc2c1CCC(C(=O)Nc1ccc3[nH]nc(-c4ccoc4)c3c1)C2 (single isomer, unassigned) [Example 161b]
6 | 0.1 to 1 | ≤ 0.1 | – | O=C(Nc1ccc2[nH]nc(-c3ccoc3)c2c1)c1ccn2nccc2c1 [Example 117, N-(3-(Furan-3-yl)-1H-indazol-5-yl)pyrazolo[1,5-a]pyridine-5-carboxamide]
7 | 0.1 to 1 | ≤ 0.1 | – | Cn1ncc2c(F)c(C(=O)Nc3cc4c(-c5ccccc5)n[nH]c4cc3F)c(F)cc21 [Example 143, 4,6-Difluoro-N-(6-fluoro-3-phenyl-1H-indazol-5-yl)-1-methyl-1H-indazole-5-carboxamide]
8 | 0.1 to 1 | ≤ 0.1 | – | Cc1cc2c(C)ncn2c(C)c1C(=O)Nc1ccc2[nH]nc(C)c2c1 [Example 148, 1,5,7-Trimethyl-N-(3-methyl-1H-indazol-5-yl)imidazo[1,5-a]pyridine-6-carboxamide]
9 | 0.1 to 1 | ≤ 0.1 | – | Cc1nc2cncn2c(C)c1C(=O)Nc1ccc2[nH]nc(-c3ccoc3)c2c1 [Example 112, N-(3-(Furan-3-yl)-1H-indazol-5-yl)-2,4-dimethylimidazo[1,5-a]pyrimidine-3-carboxamide]
10 | 0.1 to 1 | ≤ 0.1 | – | O=C(Nc1ccc2[nH]nc(-c3ccoc3)c2c1)c1cc2ncccc2s1 [Example 125, N-(3-(Furan-3-yl)-1H-indazol-5-yl)thieno[3,2-b]pyridine-2-carboxamide]
11 | ≤ 0.1 | ≤ 0.1 | – | O=C(Nc1ccc2[nH]nc(-c3ccoc3)c2c1)c1nc2ccncc2s1 [Example 171, N-(3-(Furan-3-yl)-1H-indazol-5-yl)thiazolo[5,4-c]pyridine-2-carboxamide]
12 | 1 to 10 | 0.1 to 1 | – | Cn1ncc2c(F)c(C(=O)Nc3ccc4[nH]nc(N5CCCC5)c4c3)c(F)cc21 [Example 108, 4,6-Difluoro-1-methyl-N-(3-(pyrrolidin-1-yl)-1H-indazol-5-yl)-1H-indazole-5-carboxamide]
13 | 0.1 to 1 | 0.1 to 1 | – | Cc1nn2ccncc2c1C(=O)Nc1ccc2[nH]nc(-c3ccoc3)c2c1 [Example 164, N-(3-(furan-3-yl)-1H-indazol-5-yl)-2-methylpyrazolo[1,5-a]pyrazine-3-carboxamide]

The remaining lines, values behind:

Row | SMILES | IC50 ([1]; class symbols) [µM] | IC50 [2] [µM] | IC50 ([1]; numeric bound instead of class symbol) [µM]
14 | COc1ccccc1-c1n[nH]c2ccc(NC(=O)c3c(F)cc4c(cnn4C)c3F)cc12 [Example 85, 4,6-Difluoro-N-(3-(2-methoxyphenyl)-1H-indazol-5-yl)-1-methyl-1H-indazole-5-carboxamide] | 1 to 10 | ≤ 0.1 | –
15 | Cc1cc2[nH]cnc2cc1C(=O)Nc1ccc2[nH]nc(Br)c2c1 [Example 18, N-(3-Bromo-1H-indazol-5-yl)-6-methyl-1H-benzo[d]imidazole-5-carboxamide] | 0.1 to 1 | 0.1 to 1 | –
16 | Cc1cccc(-c2n[nH]c3ccc(NC(=O)c4c(F)cc5c(cnn5C)c4F)cc23)n1 [Example 71, 4,6-Difluoro-1-methyl-N-(3-(6-methylpyridin-2-yl)-1H-indazol-5-yl)-1H-indazole-5-carboxamide] | 0.1 to 1 | ≤ 0.1 | –
17 | Cc1cc2cnnn2c(C)c1C(=O)Nc1ccc2[nH]nc(Br)c2c1 [Example 45, N-(3-Bromo-1H-indazol-5-yl)-5,7-dimethyl-[1,2,3]triazolo[1,5-a]pyridine-6-carboxamide] | 0.1 to 1 | ≤ 0.1 | –
18 | Cc1n[nH]c2ccc(NC(=O)c3c(F)cc4c(cnn4C)c3F)cc12 [Example 51, 4,6-Difluoro-1-methyl-N-(3-methyl-1H-indazol-5-yl)-1H-indazole-5-carboxamide] | 0.1 to 1 | ≤ 0.1 | –
19 | Cn1cc(-c2n[nH]c3ccc(NC(=O)c4c(F)cc5c(cnn5C)c4F)cc23)c(C(F)(F)F)n1 [Example 92, 4,6-Difluoro-1-methyl-N-(3-(1-methyl-3-(trifluoromethyl)-1H-pyrazol-4-yl)-1H-indazol-5-yl)-1H-indazole-5-carboxamide] | 0.1 to 1 | ≤ 0.1 | –
20 | Cc1cc2nn[nH]c2cc1C(=O)Nc1ccc2[nH]nc(-c3cccc(N4CCOCC4)c3)c2c1 [Example 2, 5-Methyl-N-(3-(3-morpholinophenyl)-1H-indazol-5-yl)-1H-benzo[d][1,2,3]triazole-6-carboxamide] | ≤ 0.1 | ≤ 0.1 | –
21 | CCCc1n[nH]c2ccc(NC(=O)c3c(F)cc4c(cnn4C)c3F)cc12 [Example 99, 4,6-Difluoro-1-methyl-N-(3-propyl-1H-indazol-5-yl)-1H-indazole-5-carboxamide] | 0.1 to 1 | ≤ 0.1 | –
22 | Cc1cc(-c2n[nH]c3ccc(NC(=O)c4c(F)cc5c(cnn5C)c4F)cc23)c(C)o1 [Example 101, N-(3-(2,5-Dimethylfuran-3-yl)-1H-indazol-5-yl)-4,6-difluoro-1-methyl-1H-indazole-5-carboxamide] | 0.1 to 1 | ≤ 0.1 | –
23 | Cn1cc(-c2n[nH]c3ccc(NC(=O)c4c(F)cc5c(cnn5C)c4F)cc23)cn1 [Example 35, 4,6-Difluoro-1-methyl-N-(3-(1-methyl-1H-pyrazol-4-yl)-1H-indazol-5-yl)-1H-indazole-5-carboxamide] | ≤ 0.1 | ≤ 0.1 | –
24 | Cc1ccc(-c2n[nH]c3ccc(NC(=O)c4c(F)cc5c(cnn5C)c4F)cc23)s1 [Example 97, 4,6-Difluoro-1-methyl-N-(3-(5-methylthiophen-2-yl)-1H-indazol-5-yl)-1H-indazole-5-carboxamide] | ≤ 0.1 | ≤ 0.1 | –
25 | Cn1ncc2c(F)c(C(=O)Nc3ccc4[nH]nc(-c5ccccc5OC(F)(F)F)c4c3)c(F)cc21 [Example 93, 4,6-Difluoro-1-methyl-N-(3-(2-(trifluoromethoxy)phenyl)-1H-indazol-5-yl)-1H-indazole-5-carboxamide] | – | 1 to 10 | > 10
26 | Cc1cc2c(C)nnn2c(C)c1C(=O)Nc1ccc2[nH]nc(C)c2c1 [Example 65, 3,5,7-Trimethyl-N-(3-methyl-1H-indazol-5-yl)-[1,2,3]triazolo[1,5-a]pyridine-6-carboxamide] | 1 to 10 | 0.1 to 1 | –
27 | Cc1ncc(-c2n[nH]c3ccc(NC(=O)c4c(F)cc5c(cnn5C)c4F)cc23)s1 [Example 95, 4,6-Difluoro-1-methyl-N-(3-(2-methylthiazol-5-yl)-1H-indazol-5-yl)-1H-indazole-5-carboxamide] | ≤ 0.1 | ≤ 0.1 | –
